Results published in patent US20220380347A1, “INHIBITORS OF CYSTEINE PROTEASES AND METHODS OF USE THEREOF” (Pardes Biosciences, Inc., priority 2020, published 2022).
Where two headings read alike, the source gives them in different places.

Tests used:
HCoV 229E = HCoV 229E cytopathic effect (CPE) assay, CellTiter Glo; format: cell-based, human coronavirus (HCov) 229E; settings: protection of virus-induced CPE
Experimental: Example 238: Evaluation of antiviral activity of compounds against human coronavirus (HCov) 229E and OC43 in the cytopathic effect (CPE) assays
Compounds were assayed using standard methods against multiple coronaviral strains, including HCoV 229E and OC43 strains. The antiviral activity of compounds was calculated based on the protection of the virus-induced CPE at each concentration normalized by the virus control.
Cytopathic effect (CPE) was measured by CellTiter Glo following the manufacturer's manual. The antiviral activity of compounds was calculated based on the protection of the virus-induced CPE at each concentration normalized by the virus control.
Cell viability was measured with CellTiter Glo.

[1] = Cytotoxicity in parallel to the 229E CPE assay, without virus infection, CellTiter Glo; settings: 229E CC50, without virus infection
Experimental: Reagents and instruments used in this assay include luminescent cell viability assay kit CellTiter Glo (Promega) and Microplate Reader Synergy2 (BioTek).
The cytotoxicity of compounds was assessed under the same conditions, but without virus infection, in parallel. Cell viability was measured with CellTiter Glo. The antiviral activity and cytotoxicity of compounds were expressed as % Inhibition and % Viability, respectively, and calculated with formulas.

229E Mpro = 229E Mpro (Human coronavirus 229E, UniProt P0C6X1); assay: 229E Mpro enzymatic assay (standard methods, SARS-CoV2 Mpro assay given as exemplary); format: biochemical, human coronavirus (HCov) 229E
How it was run: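 IC50 for 229E Mpro by standard methods; exemplary SARS-CoV-2 protocol used C-His6-tagged Mpro from E. coli, 25 nM enzyme, 25 μM substrate (Km 13.5 μM), in Tris-HCl pH 7.3, NaCl, EDTA, TCEP, 0.1% BSA. Inhibition normalised to no-compound and full-effect controls; four-parameter fit.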

[2] = biological target: COVID-19 (nCoV-2019, SARS-CoV2) Mpro (Severe acute respiratory syndrome coronavirus 2, UniProt P0DTD1); assay: COVID-19 (nCoV-2019, SARS-CoV2) Mpro enzymatic assay; format: biochemical; settings: 25 nM Mpro, 25 μM substrate; read-out: COVID-19 Mpro IC50
HCov OC43 = assay: HCoV OC43 cytopathic effect (CPE) assay, CellTiter Glo; format: cell-based, human coronavirus (HCov) OC43
[3] = Betacoronavirus 1, OC43, read-out: OC43 IC50 (uM) MEDIAN, median
[4] = read-out: OC43 IC50 (uM) MEDIAN, median

Chain of 229E Mpro (P0C6X1 2966-3267): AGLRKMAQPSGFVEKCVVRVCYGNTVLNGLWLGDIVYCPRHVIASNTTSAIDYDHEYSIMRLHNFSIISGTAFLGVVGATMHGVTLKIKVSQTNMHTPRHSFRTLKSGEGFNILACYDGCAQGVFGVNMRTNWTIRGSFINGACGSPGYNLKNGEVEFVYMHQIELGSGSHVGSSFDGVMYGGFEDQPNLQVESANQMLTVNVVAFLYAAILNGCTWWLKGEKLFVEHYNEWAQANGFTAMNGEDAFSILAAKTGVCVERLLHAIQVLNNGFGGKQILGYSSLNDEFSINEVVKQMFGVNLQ

## CN1CCN(C#N)C(C(=O)N(c2ccc(C(C)(C)C)cc2)C(C(=O)NC2CCCCC2)c2cccnc2)C1 (single isomer, unassigned) [Compound 217 Isomer 2, N-(4-tert-butylphenyl)-1-cyano-N-[2-(cyclohexylamino)-2-oxo-1-(3-pyridyl)ethyl]-4-methyl-piperazine-2-carboxamide]
HCoV 229E; unidentified human coronavirus
  EC50: < 2000 nM
[1]
  CC50: > 30000 nM
229E Mpro; 229E Mpro EC50
  EC50: < 2000 nM
[2]
  IC50: < 2000 nM

## C[C@@H]1CC[C@H](C(=O)N(c2ccc(C(C)(C)C)cc2)C(C(=O)NC2CCCCC2)c2cccnc2)N1C#N (single isomer, unassigned) [Compound 244 Isomer 1]
HCoV 229E; unidentified human coronavirus
  EC50: < 2000 nM
[1]
  CC50: > 30000 nM
229E Mpro; 229E Mpro EC50
  EC50: < 2000 nM
[2]
  IC50: 2000 to 10000 nM

## CC(C)(C)c1ccc(N(C(=O)[C@H]2C[C@@H](O)CN2C#N)C(C(=O)NC2CCCCC2)c2cccnc2)cc1 (single isomer, unassigned) [Compound 254 Isomer 2]
[1]
  CC50: > 30000 nM
HCov OC43; [3]
  IC50: < 2 µM
229E Mpro; read-out: 229E Mpro EC50
  EC50: < 2000 nM
[2]
  IC50: < 2000 nM

## N#CN1C[C@H](O)C[C@@H]1C(=O)N(c1ccc(S(F)(F)(F)(F)F)cc1)C(C(=O)NC1CCCCC1)c1cccnc1 (single isomer, unassigned) [Compound 791 Isomer 2]
HCoV 229E; unidentified human coronavirus
  EC50: < 2000 nM
HCov OC43; [4]
  IC50: < 2 µM
229E Mpro; read-out: 229E Mpro EC50
  EC50: < 2000 nM
[2]
  IC50: 2000 to 10000 nM

## CC(C)(C)c1ccc(N(C(=O)[C@H]2C[C@@H](F)CN2C#N)C(C(=O)NC2CCCCC2)c2cccnc2)cc1 (single isomer, unassigned) [Compound 870 Isomer 1]
HCoV 229E; unidentified human coronavirus
  EC50: < 2000 nM
HCov OC43; [3]
  IC50: < 2 µM
229E Mpro; 229E Mpro EC50
  EC50: < 2000 nM
[2]
  IC50: < 2000 nM

## CC(C)(C)c1ccc(N(C(=O)[C@H]2C[C@@H](F)CN2C#N)C(C(=O)NC2CCCCC2)c2cccnc2)cc1 (single isomer, unassigned) [Compound 870 Isomer 2]
HCoV 229E
  EC50: 2000 to 10000 nM
HCov OC43; [4]
  IC50: < 2 µM
229E Mpro; read-out: 229E Mpro EC50
  EC50: < 2000 nM
[2]
  IC50: 2000 to 10000 nM

## CC(C)(C)c1ccc(N(C(=O)[C@H]2CC(F)(F)CN2C#N)C(C(=O)NC2CCCCC2)c2cccnc2)cc1 (single isomer, unassigned) [Compound 876 Isomer 1]
HCoV 229E; unidentified human coronavirus
  EC50: < 2000 nM
HCov OC43; read-out: OC43 IC50 (uM) MEDIAN, median, listed as 876 Isomer 1
  IC50: 10 to 30 µM
229E Mpro; 229E Mpro EC50
  EC50: < 2000 nM
[2]
  IC50: 2000 to 10000 nM

## C[C@@]1(O)C[C@H](C(=O)N(c2ccc(S(F)(F)(F)(F)F)cc2)C(C(=O)NC2CCC(F)(F)CC2)c2cccnc2)N(C#N)C1 (single isomer, unassigned) [Compound 1156 Isomer 1]
HCoV 229E; unidentified human coronavirus
  EC50: < 2000 nM
HCov OC43; [3]
  IC50: 2 to 10 µM
229E Mpro; 229E Mpro EC50
  EC50: < 2000 nM
[2]
  IC50: 2000 to 10000 nM

## C[C@@]1(O)C[C@H](C(=O)N(c2ccc(S(F)(F)(F)(F)F)cc2)C(C(=O)NC2CCC(F)(F)CC2)c2cccnc2)N(C#N)C1 (single isomer, unassigned) [Compound 1156 Isomer 2]
HCoV 229E
  EC50: 2000 to 10000 nM
HCov OC43; [4]
  IC50: < 2 µM
229E Mpro; read-out: 229E Mpro EC50
  EC50: < 2000 nM
[2]
  IC50: < 2000 nM

## CC(C)(C)c1ccc(N(C(=O)c2c[nH]cn2)C(C(=O)NC2CCCCC2)c2cccnc2C#N)cc1 (centres unmarked) [Compound 100, N-(4-tert-butylphenyl)-N-[1-(2-cyano-3-pyridyl)-2-(cyclohexylamino)-2-oxo-ethyl]-1H-imidazole-5-carboxamide]
HCoV 229E; unidentified human coronavirus
  EC50: 2000 to 10000 nM
[1]
  CC50: > 30000 nM
229E Mpro; 229E Mpro EC50
  EC50: 2000 to 10000 nM
[2]
  IC50: 10000 to 30000 nM

## CC(C)(C)c1ccc(N(C(=O)c2cnc[nH]2)C(C(=O)NC2CCCCC2)c2cncnc2C#N)cc1 (centres unmarked) [Compound 103, N-(4-(tert-butyl)phenyl)-N-(1-(4-cyanopyrimidin-5-yl)-2-(cyclohexylamino)-2-oxoethyl)-1H-imidazole-5-carboxamide]
HCoV 229E; unidentified human coronavirus
  EC50: 10000 to 30000 nM
[1]
  CC50: > 30000 nM
229E Mpro; 229E Mpro EC50
  EC50: 2000 to 10000 nM
[2]
  IC50: 10000 to 30000 nM

## CC(C)(C)c1ccc(C(C(=O)c2cnc[nH]2)C(C(=O)NC2CCCCC2)c2nccnc2C#N)cc1 (centres unmarked) [Compound 105]
HCoV 229E; unidentified human coronavirus
  EC50: 2000 to 10000 nM
[1]
  CC50: > 30000 nM
229E Mpro; 229E Mpro EC50
  EC50: 10000 to 30000 nM
[2]
  IC50: > 30000 nM

## Cc1nnsc1C(C(=O)NC1CCCCC1)N(C(=O)c1cnc[nH]1)c1ccc(C(C)(C)C)cc1 (centres unmarked) [Compound 109]
HCoV 229E; unidentified human coronavirus
  EC50: 2000 to 10000 nM
[1]
  CC50: > 30000 nM
229E Mpro; 229E Mpro EC50
  EC50: 2000 to 10000 nM
[2]
  IC50: > 30000 nM

## CC(C)(C)c1ccc(N(C(=O)c2cnc[nH]2)C(C(=O)NC2CCCCC2)c2cccnc2)c(C#N)n1 (centres unmarked) [Compound 117]
HCoV 229E; unidentified human coronavirus
  EC50: 2000 to 10000 nM
[1]
  CC50: > 30000 nM
229E Mpro; 229E Mpro EC50
  EC50: 2000 to 10000 nM
[2]
  IC50: > 30000 nM

## CC(C)(C)c1ccc(N(C(=O)C2CS(=O)(=O)CCN2C#N)C(C(=O)NC2CCCCC2)c2cccnc2)cc1 (centres unmarked) [Compound 226]
HCoV 229E; unidentified human coronavirus
  EC50: 2000 to 10000 nM
HCov OC43; [3]
  IC50: 2 to 10 µM
229E Mpro; 229E Mpro EC50
  EC50: < 2000 nM
[2]
  IC50: < 2000 nM

## CC(C)(C)c1ccc(N(C(=O)[C@H]2CCCN2C#N)C(C(=O)NCC(=O)N2CCOCC2)c2cccnc2)cc1 (stereo partly drawn) [Compound 403, (2R)—N-(4-(tert-butyl)phenyl)-1-cyano-N-(2-((2-morpholino-2-oxoethyl)amino)-2-oxo-1-(pyridin-3-yl)ethyl)pyrrolidine-2-carboxamide]
HCoV 229E; unidentified human coronavirus
  EC50: 2000 to 10000 nM
HCov OC43; [3]
  IC50: 2 to 10 µM
229E Mpro; 229E Mpro EC50
  EC50: < 2000 nM
[2]
  IC50: < 2000 nM

## CN(C)C(=O)CNC(=O)C(c1cccnc1)N(C(=O)[C@H]1CCCN1C#N)c1ccc(C(C)(C)C)cc1 (stereo partly drawn) [Compound 415, (2R)—N-(4-(tert-butyl)phenyl)-1-cyano-N-(2-((2-(dimethylamino)-2-oxoethyl)amino)-2-oxo-1-(pyridin-3-yl)ethyl)pyrrolidine-2-carboxamide]
HCoV 229E; unidentified human coronavirus
  EC50: 2000 to 10000 nM
HCov OC43; [3]
  IC50: 2 to 10 µM
229E Mpro; 229E Mpro EC50
  EC50: < 2000 nM
[2]
  IC50: 2000 to 10000 nM

## CC(C)(C)c1ccc(N(C(=O)[C@H]2C[C@@H](O)CN2C#N)C(C(=O)Nc2c(Cl)cccc2Cl)c2cccnc2)cc1 (stereo partly drawn) [Compound 591, (2R,4R)—N-(4-(tert-butyl)phenyl)-1-cyano-N-(2-((2,6-dichlorophenyl)amino)-2-oxo-1-(pyridin-3-yl)ethyl)-4-hydroxypyrrolidine-2-carboxamide]
HCoV 229E; unidentified human coronavirus
  EC50: 2000 to 10000 nM
HCov OC43; [3]
  IC50: > 30 µM
229E Mpro; 229E Mpro EC50
  EC50: 2000 to 10000 nM
[2]
  IC50: 2000 to 10000 nM

## CC(C)(C)c1ccc(N(C(=O)[C@H]2C[C@@H](O)CN2C#N)C(C(=O)NC2CCCCC2)c2c[nH]nn2)cc1 (stereo partly drawn) [Compound 663, (2R,4R)—N-(4-(tert-butyl)phenyl)-1-cyano-N-(2-(cyclohexylamino)-2-oxo-1-(1H-1,2,3-triazol-4-yl)ethyl)-4-hydroxypyrrolidine-2-carboxamide]
HCoV 229E; unidentified human coronavirus
  EC50: < 2000 nM
HCov OC43; [3]
  IC50: 2 to 10 µM
229E Mpro; 229E Mpro EC50
  EC50: < 2000 nM
[2]
  IC50: 2000 to 10000 nM

## Cc1nc2ccc(N(C(=O)[C@H]3C[C@@H](O)CN3C#N)C(C(=O)NC3CCCCC3)c3cccnc3)cc2[nH]1 (stereo partly drawn) [Compound 759, (2R,4R)-1-cyano-N-(2-(cyclohexylamino)-2-oxo-1-(pyridin-3-yl)ethyl)-4-hydroxy-N-(2-methyl-1H-benzo[d]imidazol-6-yl)pyrrolidine-2-carboxamide]
HCoV 229E; unidentified human coronavirus
  EC50: < 2000 nM
HCov OC43; [3]
  IC50: > 30 µM
229E Mpro; 229E Mpro EC50
  EC50: > 30000 nM
[2]
  IC50: > 30000 nM

## CC(C)(C)c1ccc(N(C(=O)[C@H]2CCCN2C#N)C(C(=O)N2CC(F)C2)c2cccnc2)cc1 (stereo partly drawn) [Compound 952, (2R)—N-(4-(tert-butyl)phenyl)-1-cyano-N-(2-(3-fluoroazetidin-1-yl)-2-oxo-1-(pyridin-3-yl)ethyl)pyrrolidine-2-carboxamide]
HCoV 229E; unidentified human coronavirus
  EC50: 2000 to 10000 nM
HCov OC43; [3]
  IC50: 2 to 10 µM
229E Mpro; 229E Mpro EC50
  EC50: < 2000 nM
[2]
  IC50: 2000 to 10000 nM

## CN1CCN(C(=O)C(c2cccnc2)N(C(=O)[C@H]2CCCN2C#N)c2ccc(C(C)(C)C)cc2)CC1=O (some centres unmarked) [Compound 969]
HCoV 229E; unidentified human coronavirus
  EC50: 2000 to 10000 nM
HCov OC43; [3]
  IC50: 2 to 10 µM
229E Mpro; 229E Mpro EC50
  EC50: < 2000 nM
[2]
  IC50: < 2000 nM

## CC(C)(O)CNC(=O)C(c1cccnc1)N(C(=O)[C@H]1CCCN1C#N)c1ccc(C(C)(C)C)cc1 (some centres unmarked) [Compound 1119]
HCoV 229E; unidentified human coronavirus
  EC50: 2000 to 10000 nM
HCov OC43; [3]
  IC50: 2 to 10 µM
229E Mpro; 229E Mpro EC50
  EC50: < 2000 nM
[2]
  IC50: 2000 to 10000 nM
